The values below come from patent publication US20240116985A1, “STAPLED PEPTIDES AND METHODS THEREOF” (priority 2020, published 2024).

The term chromatographic logD denotes a lipophilicity value derived from retention on a column. A higher chromatographic logD goes with a more lipophilic compound. As a reminder, the solubility is the concentration that dissolves in the medium under given conditions. Read a high solubility as much dissolved substance. What is called Solubility is the concentration that dissolves in the medium under given conditions. High values mean a readily soluble substance, low ones a poorly soluble substance. The logD is the decadic logarithm of the distribution of all forms, ionised or not, between an organic phase and buffer at a given pH. Lower therefore signals a more hydrophilic compound.

pIC50: −log10 of the molar value. In brackets after ≈: the same amount, converted by molar mass. Where two headings read alike, the source gives them in different places.

Data set [1] has as its target T1, full-length beta-Catenin (Uniprot ID P35222) (Homo sapiens, UniProt P35222).
T1 construct: 10 nM full-length beta-Catenin (Uniprot ID P35222)
T1 sequence (P35222 1-781): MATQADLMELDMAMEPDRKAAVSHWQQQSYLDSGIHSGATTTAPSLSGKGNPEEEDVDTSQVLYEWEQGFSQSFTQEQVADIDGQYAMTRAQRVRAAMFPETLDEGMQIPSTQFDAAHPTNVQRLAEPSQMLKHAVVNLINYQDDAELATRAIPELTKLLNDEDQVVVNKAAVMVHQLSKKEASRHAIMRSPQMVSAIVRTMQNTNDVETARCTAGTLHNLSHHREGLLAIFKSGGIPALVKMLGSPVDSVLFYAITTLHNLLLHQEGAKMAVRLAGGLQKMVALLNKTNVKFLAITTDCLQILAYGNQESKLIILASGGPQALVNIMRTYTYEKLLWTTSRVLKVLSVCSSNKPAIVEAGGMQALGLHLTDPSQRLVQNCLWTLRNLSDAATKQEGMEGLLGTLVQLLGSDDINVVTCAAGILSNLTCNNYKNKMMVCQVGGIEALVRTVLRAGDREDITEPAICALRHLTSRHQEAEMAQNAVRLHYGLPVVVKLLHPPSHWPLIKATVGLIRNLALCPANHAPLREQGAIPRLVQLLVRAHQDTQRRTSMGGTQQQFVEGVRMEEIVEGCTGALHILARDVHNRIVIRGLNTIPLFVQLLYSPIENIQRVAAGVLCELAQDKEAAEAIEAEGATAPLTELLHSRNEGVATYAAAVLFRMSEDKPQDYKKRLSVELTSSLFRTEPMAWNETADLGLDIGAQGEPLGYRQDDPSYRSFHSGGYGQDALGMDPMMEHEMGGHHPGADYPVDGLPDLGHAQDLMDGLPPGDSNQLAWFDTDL
Briefly: Fluorescence polarization IC50 (beta-catenin / 5FAM-TCF4 10-53 competition). The data set is classed as binding.

The nature of a further data set: CHI Log D procedure. The data set is classed as physicochemical. To be noted: for chromatographic logD / logD: pH 7.4, CHI Log D; for CHI Log D: pH 7.4.
A short description of another data set: Solubility in PBS. The data set is classed as physicochemical. The method, boiled down:
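HPLC quantitation of peptide remaining in the PBS supernatant after ultracentrifugation, referenced to a 50 μM solution in DMSO.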

Setting [2] is: Table E2-1, read-out: beta-Catenin FP IC50.
[3] abbreviates: fluorescence polarization, read-out: beta-Catenin FP IC50.

Regarding `CC(=O)N1CCC[C@]12CC=CCCCC1(CCCC=CCCCCCC[C@@](C)(C(=O)N[C@@H](Cc3ccccc3)C(=O)N[C@@H](Cc3c[nH]c4ccccc34)C(=O)N[C@@H](CCC(N)=O)C(N)=O)NC(=O)[C@H](C(C)C)NC(=O)C(Cc3cncn3C)NC(=O)[C@H](C)NC(=O)[C@H](C)NC(=O)[C@H](CC(=O)O)NC(=O)[C@H](CC(=O)O)NC1=O)NC(=O)[C@H](C)NC(=O)[C@H](CC(=O)O)NC2=O` (single isomer, unassigned) [I-331, Ac-PL3-Asp-Ala-B5-Asp-Asp-Ala-Ala-3meH-Val-S8-Phe-Trp-Gln-NH2], the pIC50 in data set [1] (setting [2]) was 5.30. The same compound returned a chromatographic logD in the data set “CHI Log D procedure” of 2.02. In the data set “Solubility in PBS” (Solubility (uM)), this compound had a solubility at 15 min of 41 µM (≈ 73.2 µg/mL).
Turning to `CC(=O)N1CCC[C@]12CC=CCCCC1(CCCC=CCCCCCC[C@@](C)(C(=O)N[C@@H](Cc3ccccc3)C(=O)N[C@@H](Cc3csc4ccccc34)C(=O)NC(Cc3cncn3C)C(N)=O)NC(=O)[C@H](CC(N)=O)NC(=O)[C@H](Cc3ccccc3)NC(=O)[C@H](C)NC(=O)[C@H](C)NC(=O)[C@H](CCC(=O)O)NC(=O)[C@H](CC(=O)O)NC1=O)NC(=O)[C@H](C)NC(=O)[C@H](CC(=O)O)NC2=O` (single isomer, unassigned) [I-480, Ac-PL3-Asp-Ala-B5-Asp-Glu-Ala-Ala-Phe-Asn-S8-Phe-BztA-3MeH-NH2], in data set [1] (setting [3]), the pIC50 was 6.75. Also, the chromatographic logD in the data set “CHI Log D procedure” came out at 2.1. Further, the solubility at 15 min in the data set “Solubility in PBS” (Solubility (uM)) was determined as 36 µM (≈ 66.6 µg/mL).
For the compound `CC(=O)N1CCC[C@]12CC=CCCCC1(CCCC=CCCCCCC[C@@](C)(C(=O)N[C@@H](Cc3ccccc3)C(=O)N[C@@H](Cc3csc4ccccc34)C(=O)NC(Cc3cncn3C)C(N)=O)NC(=O)[C@H](CC(N)=O)NC(=O)[C@H](Cc3ccccc3)NC(=O)[C@H](C)NC(=O)[C@H](C)NC(=O)[C@H](CCC(=O)O)NC(=O)[C@H](CC(=O)O)NC1=O)NC(=O)[C@H](C)NC(=O)[C@H](CC(=O)O)NC2=O` (single isomer, unassigned) [I-481, Ac-PL3-Asp-Ala-B5-Asp-Glu-Ala-Ala-Phe-Asn-S8-Phe-BztA-3MeH-NH2], the pIC50 in data set [1] (setting [3]) was 7.38. In the data set “CHI Log D procedure”, the “CHI Log D” value is 2.133. In the data set “Solubility in PBS” (15 min), the “Solubility” value stood at 30 µM (≈ 55.5 µg/mL).
As to `CC(=O)N1CCC[C@]12CC=CCCCC1(CCCC=CCCCCC[C@@](C)(C(=O)N[C@@H](Cc3ccccc3)C(=O)N[C@@H](Cc3c[nH]c4ccccc34)C(=O)N[C@@H](CCC(N)=O)C(N)=O)NC(=O)[C@H](C(C)C)NC(=O)[C@H](Cc3ccccc3)NC(=O)[C@H](C)NC(=O)[C@H](C)NC(=O)[C@H](CCC(=O)O)NC(=O)[C@H](CC(=O)O)NC1=O)NC(=O)[C@H](C)NC(=O)[C@H](CC(=O)O)NC2=O` (stereo partly drawn) [I-132, Ac-PL3-Asp-Ala-B5-Asp-Glu-Ala-Ala-Phe-Val-S7-Phe-Trp-Gln-NH2], the pIC50 in data set [1] (setting [2]) is 5.30. In the data set “CHI Log D procedure”, this compound came in with a chromatographic logD of 1.69. The compound further registered a Solubility in “Solubility in PBS” (Solubility (uM)) of 49 µM (≈ 87.3 µg/mL).
The like results for `CC(=O)N1CCC[C@]12CC=CCCCC1(CCCC=CCCCCCC[C@@](C)(C(=O)N[C@@H](Cc3ccccc3)C(=O)N[C@@H](Cc3ccc4ccccc4c3)C(=O)N[C@@H](CCC(N)=O)C(N)=O)NC(=O)[C@H](C(C)C)NC(=O)[C@H](Cc3ccccc3)NC(=O)[C@H](C)NC(=O)[C@H](C)NC(=O)[C@H](CCC(=O)O)NC(=O)[C@H](CC(=O)O)NC1=O)NC(=O)[C@H](C)NC(=O)[C@H](CC(=O)O)NC2=O` (stereo partly drawn) [I-140, Ac-PL3-Asp-Ala-B5-Asp-Glu-Ala-Ala-Phe-Val-S8-Phe-2NapA-Gln-NH2] were, in that order, 5.64, 2.19 and 48 µM (≈ 86.7 µg/mL).
For `CC(=O)N1CCC[C@]12CC=CCCCC1(CCCC=CCCCCCC[C@@](C)(C(=O)N[C@@H](Cc3ccccc3)C(=O)N[C@@H](Cc3c[nH]c4ccccc34)C(=O)N[C@@H](CCC(N)=O)C(N)=O)NC(=O)[C@H](C(C)C)NC(=O)[C@H](Cc3cccc(F)c3)NC(=O)[C@H](C)NC(=O)[C@H](C)NC(=O)[C@H](CC(=O)O)NC(=O)[C@H](CC(=O)O)NC1=O)NC(=O)[C@H](C)NC(=O)[C@H](CC(=O)O)NC2=O` (stereo partly drawn) [I-265, Ac-PL3-Asp-Ala-B5-Asp-Asp-Ala-Ala-3FF-Val-S8-Phe-Trp-Gln-NH2], the pIC50 in data set [1] (setting [2]) was 5.42; in data set [1] (fluorescence polarization, beta-catenin, read-out: FP EC50) it was 5.42. In addition, the “CHI Log D” value in “CHI Log D procedure” was determined as 2.032. Besides, the “Solubility” value in “Solubility in PBS” turned out to be 36 µM (≈ 64.8 µg/mL).
For `CC(=O)N1CCC[C@]12CC=CCCCC1(CCCC=CCCCCCC[C@@](C)(C(=O)N[C@@H](Cc3ccsc3)C(=O)N[C@@H](Cc3csc4ccccc34)C(=O)N[C@@H](CCC(N)=O)C(=O)N[C@@H](C)C(=O)N[C@@H](C)C(=O)N[C@@H](C)C(N)=O)NC(=O)[C@H](CC(N)=O)NC(=O)[C@H](Cc3ccccc3)NC(=O)[C@H](C)NC(=O)[C@H](C)NC(=O)[C@H](CC(=O)O)NC(=O)[C@H](CC(=O)O)NC1=O)NC(=O)[C@H](CC(C)(C)C)NC(=O)[C@H](CC(=O)O)NC2=O` (stereo partly drawn) [I-874, Ac-PL3-Asp-Npg-B5-Asp-Asp-Ala-Ala-Phe-Asn-S8-3Thi-BztA-Gln-Ala-Ala], the logD in “CHI Log D procedure” turned out to be 2.31. In addition, the “Solubility” value in “Solubility in PBS” is 50 µM (≈ 104 µg/mL).
For `CC(=O)N1CCC[C@]12CC=CCCCC1(CCCC=CCCCCCC[C@@](C)(C(=O)N[C@@H](Cc3ccsc3)C(=O)N[C@@H](Cc3csc4ccccc34)C(=O)N[C@@H](CCC(N)=O)C(=O)N[C@H](C)C(=O)N[C@H](C)C(=O)N[C@H](C)C(N)=O)NC(=O)[C@H](CC(N)=O)NC(=O)[C@H](Cc3ccccc3)NC(=O)[C@H](C)NC(=O)[C@H](C)NC(=O)[C@H](CC(=O)O)NC(=O)[C@H](CC(=O)O)NC1=O)NC(=O)[C@H](CC(C)(C)C)NC(=O)[C@H](CC(=O)O)NC2=O` (stereo partly drawn) [I-876, Ac-PL3-Asp-Npg-B5-Asp-Asp-Ala-Ala-Phe-Asn-S8-3Thi-BztA-Gln-dAla-dAla], the logD in the data set “CHI Log D procedure” amounted to 2.26. Moreover, the “Solubility” value in “Solubility in PBS” is 50 µM (≈ 104 µg/mL).
Taken in the same sequence, the figures for `CC(=O)N1CCC[C@]12CC=CCCCC1(CCCC=CCCCCCC[C@@](C)(C(=O)N[C@@H](Cc3ccsc3)C(=O)N[C@@H](Cc3csc4ccccc34)C(=O)N[C@@H](CCC(N)=O)C(=O)N[C@@H](C)C(=O)N[C@@H](C)C(=O)N[C@H](C)C(N)=O)NC(=O)[C@H](CC(N)=O)NC(=O)[C@H](Cc3ccccc3)NC(=O)[C@H](C)NC(=O)[C@H](C)NC(=O)[C@H](CC(=O)O)NC(=O)[C@H](CC(=O)O)NC1=O)NC(=O)[C@H](CC(C)(C)C)NC(=O)[C@H](CC(=O)O)NC2=O` (stereo partly drawn) [I-877, Ac-PL3-Asp-Npg-B5-Asp-Asp-Ala-Ala-Phe-Asn-S8-3Thi-BztA-Gln-Ala-Ala] were 2.35 and 50 µM (≈ 104 µg/mL).
For the compound `COCCOCCC(=O)NCCCC[C@@H]1NC(=O)[C@H](C)NC(=O)[C@H](CC(=O)O)NC(=O)[C@H](CC(=O)O)NC(=O)C2(CCCC=CCCCOC(=O)N3CC[C@@](C(=O)N[C@@H](Cc4ccsc4)C(=O)N[C@@H](Cc4csc5ccccc45)C(=O)N[C@@H](CCC(N)=O)C(N)=O)(C3)NC(=O)[C@H](CC(N)=O)NC(=O)[C@H](Cc3ccccc3)NC1=O)CCCC=CC[C@]1(CCCN1C(C)=O)C(=O)N[C@@H](CC(=O)O)C(=O)N[C@@H](CC(C)(C)C)C(=O)N2` (stereo partly drawn) [I-892, Ac-PL3-Asp-Npg-B5-Asp-Asp-Ala-[mPEG2]Lys-Phe-Asn-PyrS2-3Thi-BztA-Gln-NH2], in the data set “CHI Log D procedure”, the “CHI Log D” value is reported as 1.475. Moreover, the “Solubility” value in the data set “Solubility in PBS” is 33 µM (≈ 69.5 µg/mL).
